Measurements taken from patent publication US9221746B2, “Homo- and hetero-polyamino-acid derivatives of fullerene C60, method for producing same, and pharmaceutical compositions based on said derivatives” (priority 2011, dated 2015).

System: A/Aichi/2/69 (H3N2) influenza virus
Assay: Induced influenza pneumonia in mice
[1] = LD70, intramuscularly 50 mg/kg/day
[2] = LD70, intramuscularly 100 mg/kg/day
[3] = LD70, intramuscularly 200 mg/kg/day
[4] = LD70, intraperitoneally 50 mg/kg/day
[5] = LD70, intraperitoneally 100 mg/kg/day

“Fullerene Poly(Aminocaproic Acid) of Formula C60(H3){NH(CH2)5COO—}3{NH3^+(CH2)5COOH}3 [Agent No. 1]” was tested, and the “Average lifetime (days)” value [1] was 13.3 (1-7 d., 1-8 d.) days, the “Percent death protection (%)” value [1] was 50% and the “Percent body weight change in days post infection” value (from here on “Percent body weight change”) (LD70, intramuscularly 50 mg/kg/day, day 1) was “+20%”. The “Percent body weight change” value (LD70, intramuscularly 50 mg/kg/day, day 2) was “+22%”, the “Percent body weight change” value (LD70, intramuscularly 50 mg/kg/day, day 3) was “+22%” and the “Percent body weight change” value (LD70, intramuscularly 50 mg/kg/day, day 4) was “+17%”. The “Percent body weight change” value (LD70, intramuscularly 50 mg/kg/day, day 5) was “+11%”, the “Percent body weight change” value (LD70, intramuscularly 50 mg/kg/day, day 7) was “+9%” and the “Percent body weight change” value (LD70, intramuscularly 50 mg/kg/day, day 9) was “+11%”. The “Percent body weight change” value (LD70, intramuscularly 50 mg/kg/day, day 11) was “+19%”, the “Percent body weight change” value (LD70, intramuscularly 50 mg/kg/day, day 13) was “+26%” and the “Percent death protection (%)” value [2] was 70%. For the same substance, the “average lifetime” value [2] was greater than 16 days, the “Percent body weight change” value (LD70, intramuscularly 100 mg/kg/day, day 1) was “+21%” and the “Percent body weight change” value (LD70, intramuscularly 100 mg/kg/day, day 2) was “+25%”. For the same substance, the “Percent body weight change” value (LD70, intramuscularly 100 mg/kg/day, day 3) was “+27%”, the “Percent body weight change” value (LD70, intramuscularly 100 mg/kg/day, day 4) was “+23%” and the “Percent body weight change” value (LD70, intramuscularly 100 mg/kg/day, day 5) was “+20%”. The “Percent body weight change” value (LD70, intramuscularly 100 mg/kg/day, day 7) was “+21.5%”, the “Percent body weight change” value (LD70, intramuscularly 100 mg/kg/day, day 9) was “+32%” and the “Percent body weight change” value (LD70, intramuscularly 100 mg/kg/day, day 11) was “+35.5%”. For the same substance, the “Percent body weight change” value (LD70, intramuscularly 100 mg/kg/day, day 13) was “+38%”, the “Average lifetime (days)” value [3] was 13.8 (1-7 d., 1-13 d.) days and the “Percent death protection (%)” value [3] was 50%. The “Percent body weight change” value (LD70, intramuscularly 200 mg/kg/day, day 1) was “+25%”, the “Percent body weight change” value (LD70, intramuscularly 200 mg/kg/day, day 2) was “+27%” and the “Percent body weight change” value (LD70, intramuscularly 200 mg/kg/day, day 3) was “+28%”. The “Percent body weight change” value (LD70, intramuscularly 200 mg/kg/day, day 4) was “+24%”, the “Percent body weight change” value (LD70, intramuscularly 200 mg/kg/day, day 5) was “+20%” and the “Percent body weight change” value (LD70, intramuscularly 200 mg/kg/day, day 7) was “+23%”. The “Percent body weight change” value (LD70, intramuscularly 200 mg/kg/day, day 9) was “+22%”, the “Percent body weight change” value (LD70, intramuscularly 200 mg/kg/day, day 11) was “+25%” and the “Percent body weight change” value (LD70, intramuscularly 200 mg/kg/day, day 13) was “+36.5%”. The “Average lifetime (days)” value [4] was 13.4 (2-8 d.) days, the “Percent death protection (%)” value [4] was 50% and the “Percent body weight change” value (LD70, intraperitoneally 50 mg/kg/day, day 1) was “+21%”. The “Percent body weight change” value (LD70, intraperitoneally 50 mg/kg/day, day 2) was “+27%”, the “Percent body weight change” value (LD70, intraperitoneally 50 mg/kg/day, day 3) was “+29%” and the “Percent body weight change” value (LD70, intraperitoneally 50 mg/kg/day, day 4) was “+21%”. For the same substance, the “Percent body weight change” value (LD70, intraperitoneally 50 mg/kg/day, day 5) was “+16%”, the “Percent body weight change” value (LD70, intraperitoneally 50 mg/kg/day, day 7) was “+15%” and the “Percent body weight change” value (LD70, intraperitoneally 50 mg/kg/day, day 9) was “+31%”. For the same substance, the “Percent body weight change” value (LD70, intraperitoneally 50 mg/kg/day, day 11) was “+36%”, the “Percent body weight change” value (LD70, intraperitoneally 50 mg/kg/day, day 13) was “+40%” and the “Average lifetime (days)” value [5] was 13.7 (1-3 d.) days. The “Percent death protection (%)” value [5] was 60%, the “Percent body weight change” value (LD70, intraperitoneally 100 mg/kg/day, day 1) was “+19%” and the “Percent body weight change” value (LD70, intraperitoneally 100 mg/kg/day, day 2) was “+23%”. The “Percent body weight change” value (LD70, intraperitoneally 100 mg/kg/day, day 3) was “+22%”, the “Percent body weight change” value (LD70, intraperitoneally 100 mg/kg/day, day 4) was “+18%” and the “Percent body weight change” value (LD70, intraperitoneally 100 mg/kg/day, day 5) was “+15%”. The “Percent body weight change” value (LD70, intraperitoneally 100 mg/kg/day, day 7) was “+18%”, the “Percent body weight change” value (LD70, intraperitoneally 100 mg/kg/day, day 9) was “+25%” and the “Percent body weight change” value (LD70, intraperitoneally 100 mg/kg/day, day 11) was “+33%”. For the same substance, the “Percent body weight change” value (LD70, intraperitoneally 100 mg/kg/day, day 13) was “+41%”, the “Percent death protection (%)” value (LD70, intraperitoneally 200 mg/kg/day) was 0% and the “Percent body weight change” value (LD70, intraperitoneally 200 mg/kg/day, day 1) was “+7%”. The “Percent body weight change” value (LD70, intraperitoneally 200 mg/kg/day, day 2) was “+6%”, the “Percent body weight change” value (LD70, intraperitoneally 200 mg/kg/day, day 3) was “+5%” and the “Percent body weight change” value (LD70, intraperitoneally 200 mg/kg/day, day 4) was −4%. For the same substance, the “Percent body weight change” value (LD70, intraperitoneally 200 mg/kg/day, day 5) was −3%, the “Percent body weight change” value (LD70, intraperitoneally 200 mg/kg/day, day 7) was −7% and the “Percent body weight change” value (LD70, intraperitoneally 200 mg/kg/day, day 9) was “+4%”. The “Percent body weight change” value (LD70, intraperitoneally 200 mg/kg/day, day 11) was “+6%”, the “Percent body weight change” value (LD70, intraperitoneally 200 mg/kg/day, day 13) was “+15%” and the “Average lifetime (days)” value (LD70, orally 100 mg/kg/day) was 13.1 (1-8 d., 1-10 d., 1-11 d.) days. For the same substance, the “Percent death protection (%)” value (LD70, orally 100 mg/kg/day) was 40%, the “Percent body weight change” value (LD70, orally 100 mg/kg/day, day 1) was “+19%” and the “Percent body weight change” value (LD70, orally 100 mg/kg/day, day 2) was “+23%”.
